This is an account of results in patent US5891864A, “Anti-cancer compositions” (Han; Yung Bok, priority 1995, dated 1999).

For series [1] the following is noted: cold / warm water; cited from earlier work.
Series [2] deals with mouse lung cancer cells 3LL. Put plainly: MTT in vitro test, cell survival rate of mouse lung cancer cell line 3LL. The class given is cell-based. As for the experimental part: (§1) In vitro test for the effect of the composition (AG60) of the present invention on mouse lung cancer cells 3LL and human hepatoma cells SK-HEP-1
(§2) Cancer cells used for this test include human hepatoma cell line SK-HEP-1 and mouse lung cancer cell line 3LL, as recommended by the U.S. NCI(National Cancer Institute).
(§3) These cell lines were incubated in the culture media prepared by adding 10% inactivated FBS(fetal bovine serum), 100 μg/ml of streptomycin and 100 units/ml of penicillin to RPMI 1640 medium, at 37° C. in an incubator(Heraus) under 5% CO2 and 100% humidity. […] After 2 days, the survival rate of cells was calculated by carrying out MTT method using determination of dehydrogenase enzyme in cellular mitochondria and measuring the absorbance at 540 nm by means of a spectrophotometer (ELISA reader), to determine the anti-cancer activity of the composition according to the present invention against respective cancer cells. MTT test is a method in which formazan precipitate formed by reduction of MTT with cellular mitochondria dehydrogenase in living cells is dissolved and then the absorbance is measured. Thus, since in vigorously dividing cancer cells the enzyme is fully active, by the action of enzyme MTT is reduced to form the precipitate which can be dissolved to determine the absorbance, thereby identifying the survival rate of respective cells. […]

Series [3] relates to human hepatoma cells SK-HEP-1. Nature of the series: MTT in vitro test, cell survival rate of human hepatoma cell line SK-HEP-1. The class given is cell-based. The protocol: as §1, §2, §3
The next series has as its system Ehrlich solid tumor. Put plainly: Comparative test for inhibition of Ehrlich solid tumor proliferation. The class given is in vivo, mouse. The following applies: An 15, Gh 15, AG60 30 mg/kg; for size of cancer tissue (solid tumor proliferation): i.m. once a day. The protocol:
Comparative test for inhibition of Ehrlich solid tumor proliferation with acriflavine neutral(An), guanosine hydrate(Gh) and the composition(AG60) of the present invention
Normal 20 ICR mice(.male., 20±1 g) were divided into 4 groups such that each group included 5 mice. Ehrlich cancer cells were transplanted into the inguinal area of all experimental animals in an amount of 1×10^7 cells per animal. After 24 hours, the control group A received physiological saline in an amount of 10 ml/kg by intramuscular injection, once a day, for 15 days. As the comparative groups, the groups B and C received acriflavine neutral(An) in an amount of 15 mg/kg and guanosine hydrate(Gh) in an amount of 15 mg/kg, respectively, in the same manner as the control group. To the group D the composition (AG60) of the present invention was administered in an amount of 30 mg/kg in the same manner as the control group. During 15 days after the transplantation of cancer cells the proliferation of solid tumor in each group was observed.
The effects on the solid tumor proliferation of the composition(AG60) of the present invention, acriflavine neutral(An) and guanosine hydrate(Gh) were determined by measuring the size of cancer tissues in control group A, the acriflavine neutral group B, the guanosine hydrate group C and the present composition(AG60) group D from the fifth day to the fifteenth day after the transplantation of cancer cells at an interval of 2 days, and are presented in Table 3 and FIG. 5. […] In group D to which the composition(AG60) of the present invention was administered, the size of cancer tissue was measured as 1.5 mm after 5 days from transplantation and, thereafter, increased 0.35 mm every 2 days.

Structures are written as SMILES.

In the case of `Nc1nc2c(ncn2[C@@H]2O[C@H](CO)[C@@H](O)[C@H]2O)c(=O)[nH]1` [Guanosine, 2-amino-9-β-D-ribofuranosyl-9H-purin-6-(1H)-one], in series [1], the solubility in water result is “slighly soluble in cold water but soluble in warm water”.

With `Nc1nc2c(ncn2[C@@H]2O[C@H](CO)[C@@H](O)[C@H]2O)c(=O)[nH]1.O` [Guanosine hydrate], the “cytotoxicity / anti-cancer activity in words” value in series [2] (3LL cells) and in series [3] (SK-HEP-1 cells) was “did not show any anti-cancer activity” throughout. Besides, the IC50 in series [2] (Mus musculus, 3LL, 48 h, read-out: ID value (survival rate of cells)) is 1520 µg/mL; in series [3] (Homo sapiens, SK-HEP1, 48 h, read-out: ID value (survival rate of cells)), 1530 µg/mL. The “size of cancer tissue (solid tumor proliferation)” value with Ehrlich solid tumor (day 5) is listed as 4.7 mm; in the series on Ehrlich solid tumor (day 7), 6.8 mm; in the series with Ehrlich solid tumor (day 9), 8.5 mm; in the series on Ehrlich solid tumor (day 11), 12.3 mm; with Ehrlich solid tumor (day 13) it was 14.5 mm; in the series with Ehrlich solid tumor (day 15) it was 18.2 mm. Also, in the series with Ehrlich solid tumor (i.m. once a day for 15 days), the “inhibition of solid tumor proliferation in words” value is recorded as “showed the similar proliferation pattern to each other”.
